Data: article PMC7265341, “Quantifying CDK inhibitor selectivity in live cells” (Nature Communications, 2020)
Like-named read-outs stand apart in the source and are kept apart here.

Legend:
CDK1/Cyclin E1 = CDK1/Cyclin E1 (Homo sapiens, UniProt P06493); assay: NanoBRET live-cell target engagement, CDK1-NanoLuc/Cyclin E1 in HEK-293; format: binding; conditions: CDK1/E1, read-out: Inhibition at 10µM (%)
CDK4/Cyclin D1 = CDK4/Cyclin D1 (Homo sapiens, UniProt P11802); assay: NanoBRET live-cell target engagement, NanoLuc-CDK4/Cyclin D1 in HEK-293; format: binding; conditions: CDK4/D1, read-out: Inhibition at 10µM (%)
CDK5/CDK5R1 = CDK5/CDK5R1 (Homo sapiens, UniProt Q00535); assay: NanoBRET live-cell target engagement, CDK5-NanoLuc/CDK5R1 in HEK-293; format: binding; conditions: CDK5/CDK5R1, read-out: Inhibition at 10µM (%)
CDK7 = CDK7 (Homo sapiens, UniProt P50613); assay: NanoBRET live-cell target engagement, NanoLuc-CDK7 in HEK-293; format: binding; conditions: for inhibition at 10 µM: read-out: Inhibition at 10µM (%)
CDK8/Cyclin C = CDK8/Cyclin C (Homo sapiens, UniProt P49336); assay: NanoBRET live-cell target engagement, NanoLuc-CDK8/Cyclin C in HEK-293; format: binding; conditions: for inhibition at 10 µM: read-out: Inhibition at 10µM (%)
CDK9/Cyclin K = CDK9/Cyclin K (Homo sapiens, UniProt P50750); assay: NanoBRET live-cell target engagement, NanoLuc-CDK9/Cyclin K in HEK-293; format: binding; conditions: CDK9/K, read-out: Inhibition at 10µM (%)
CDK11A/Cyclin L2 = target: T1, CDK11A/Cyclin L2 (Homo sapiens, UniProt Q9UQ88); assay: NanoBRET live-cell target engagement, CDK11A-NanoLuc/Cyclin L2 in HEK-293; format: binding; conditions: CDK11a/L2, read-out: Inhibition at 10µM (%)
T1 sequence (Q9UQ88 1-783): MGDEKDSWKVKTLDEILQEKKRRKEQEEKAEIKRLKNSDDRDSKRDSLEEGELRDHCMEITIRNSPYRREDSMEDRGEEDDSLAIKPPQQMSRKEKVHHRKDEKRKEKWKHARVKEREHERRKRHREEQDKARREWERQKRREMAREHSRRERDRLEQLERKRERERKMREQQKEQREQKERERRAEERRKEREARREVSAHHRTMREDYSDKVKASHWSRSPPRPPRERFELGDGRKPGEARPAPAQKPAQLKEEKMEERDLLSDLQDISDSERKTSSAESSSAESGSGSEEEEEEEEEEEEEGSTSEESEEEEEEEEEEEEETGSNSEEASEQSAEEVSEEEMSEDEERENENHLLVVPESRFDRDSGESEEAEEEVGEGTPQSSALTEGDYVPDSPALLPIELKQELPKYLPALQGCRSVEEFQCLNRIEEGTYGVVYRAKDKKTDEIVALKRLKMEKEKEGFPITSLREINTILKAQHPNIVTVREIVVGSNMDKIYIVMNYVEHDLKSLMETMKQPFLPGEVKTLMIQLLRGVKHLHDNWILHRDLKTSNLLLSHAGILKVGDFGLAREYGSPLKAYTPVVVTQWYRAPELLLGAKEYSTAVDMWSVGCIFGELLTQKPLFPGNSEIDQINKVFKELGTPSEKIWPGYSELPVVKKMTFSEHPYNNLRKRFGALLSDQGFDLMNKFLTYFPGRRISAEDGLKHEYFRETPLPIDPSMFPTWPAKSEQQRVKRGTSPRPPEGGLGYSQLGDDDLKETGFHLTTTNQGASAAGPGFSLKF

CDK11B/Cyclin L2 = CDK11B/Cyclin L2 (Homo sapiens, UniProt P21127); assay: NanoBRET live-cell target engagement, CDK11B-NanoLuc/Cyclin L2 in HEK-293; format: binding; conditions: CDK11b/L2, read-out: Inhibition at 10µM (%)
CDK12/Cyclin K = CDK12/Cyclin K (Homo sapiens, UniProt Q9NYV4); assay: NanoBRET live-cell target engagement, CDK12-NanoLuc/Cyclin K in HEK-293; format: binding; conditions: CDK12/K, read-out: Inhibition at 10µM (%)
CDK13/Cyclin K = CDK13/Cyclin K (Homo sapiens, UniProt Q14004); assay: NanoBRET live-cell target engagement, CDK13-NanoLuc/Cyclin K in HEK-293; format: binding; conditions: CDK13/K, read-out: Inhibition at 10µM (%)
CDK14/Cyclin Y = CDK14/Cyclin Y (Homo sapiens, UniProt O94921); assay: NanoBRET live-cell target engagement, CDK14-NanoLuc/Cyclin Y in HEK-293; format: binding; conditions: CDK14/Y, read-out: Inhibition at 10µM (%)
CDK15/Cyclin Y = CDK15/Cyclin Y (Homo sapiens, UniProt Q96Q40); assay: NanoBRET live-cell target engagement, NanoLuc-CDK15/Cyclin Y in HEK-293; format: binding; conditions: CDK15/Y, read-out: Inhibition at 10µM (%)
CDK16/Cyclin Y = CDK16/Cyclin Y (Homo sapiens, UniProt Q00536); assay: NanoBRET live-cell target engagement, CDK16-NanoLuc/Cyclin Y in HEK-293; format: binding; conditions: CDK16/Y; for IC50: read-out: IC50; for inhibition at 10 µM: read-out: Inhibition at 10µM (%)
CDK17/Cyclin Y = CDK17/Cyclin Y (Homo sapiens, UniProt Q00537); assay: NanoBRET live-cell target engagement, CDK17-NanoLuc/Cyclin Y in HEK-293; format: binding; conditions: CDK17/Y; for IC50: read-out: IC50; for inhibition at 10 µM: read-out: Inhibition at 10µM (%)
CDK20/Cyclin H = CDK20/Cyclin H (Homo sapiens, UniProt Q8IZL9); assay: NanoBRET live-cell target engagement, NanoLuc-CDK20/Cyclin H in HEK-293; format: binding; conditions: CDK20/H, read-out: Inhibition at 10µM (%)
CDK19/Cyclin C = CDK19/Cyclin C (Homo sapiens, UniProt Q9BWU1); assay: NanoBRET live-cell target engagement, NanoLuc-CDK19/Cyclin C in HEK-293; conditions: for inhibition at 10 µM: read-out: Inhibition at 10µM (%), CDK19/C
CDK10/Cyclin L2 = CDK10/Cyclin L2 (Homo sapiens, UniProt Q15131); assay: NanoBRET live-cell target engagement, CDK10-NanoLuc/Cyclin L2 in HEK-293; conditions: for IC50: IC50 (nM), CDK10/L2; for inhibition at 10 µM: read-out: Inhibition at 10µM (%), CDK10/L2

Chain of CDK17/Cyclin Y (Q00537 whole entry): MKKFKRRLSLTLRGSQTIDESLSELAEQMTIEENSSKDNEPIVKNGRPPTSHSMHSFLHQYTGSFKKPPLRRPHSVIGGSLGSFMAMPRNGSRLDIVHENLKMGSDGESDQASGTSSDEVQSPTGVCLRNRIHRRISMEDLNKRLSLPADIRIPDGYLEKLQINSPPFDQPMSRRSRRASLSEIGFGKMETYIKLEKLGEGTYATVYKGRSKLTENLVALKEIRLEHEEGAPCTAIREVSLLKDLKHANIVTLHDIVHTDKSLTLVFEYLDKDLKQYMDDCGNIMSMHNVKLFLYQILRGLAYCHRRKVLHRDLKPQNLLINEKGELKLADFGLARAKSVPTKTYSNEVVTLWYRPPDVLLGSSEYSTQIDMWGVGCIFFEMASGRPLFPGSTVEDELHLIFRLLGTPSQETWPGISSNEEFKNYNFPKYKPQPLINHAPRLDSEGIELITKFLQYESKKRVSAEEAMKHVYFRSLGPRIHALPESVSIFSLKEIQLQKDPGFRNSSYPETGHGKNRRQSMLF
Chain of CDK17/Cyclin Y (Q8ND76 whole entry partner): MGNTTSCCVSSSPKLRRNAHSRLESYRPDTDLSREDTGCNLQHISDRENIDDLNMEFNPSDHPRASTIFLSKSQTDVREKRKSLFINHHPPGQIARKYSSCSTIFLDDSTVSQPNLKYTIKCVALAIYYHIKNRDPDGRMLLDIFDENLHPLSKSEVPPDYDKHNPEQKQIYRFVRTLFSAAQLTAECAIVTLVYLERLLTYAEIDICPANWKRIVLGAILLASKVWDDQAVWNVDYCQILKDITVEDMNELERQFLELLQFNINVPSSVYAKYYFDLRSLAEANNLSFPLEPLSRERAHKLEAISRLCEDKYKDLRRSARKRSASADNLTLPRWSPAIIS
Chain of CDK1/Cyclin E1 (P06493 whole entry): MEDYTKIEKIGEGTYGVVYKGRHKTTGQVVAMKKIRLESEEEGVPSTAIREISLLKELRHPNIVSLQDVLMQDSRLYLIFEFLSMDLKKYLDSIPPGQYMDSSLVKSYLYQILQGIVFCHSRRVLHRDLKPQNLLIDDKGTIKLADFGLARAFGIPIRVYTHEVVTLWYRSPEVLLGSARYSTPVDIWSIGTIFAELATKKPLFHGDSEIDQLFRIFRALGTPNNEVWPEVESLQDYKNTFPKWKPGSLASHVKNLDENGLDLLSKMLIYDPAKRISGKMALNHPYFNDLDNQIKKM
Chain of CDK1/Cyclin E1 (P24864 whole entry partner): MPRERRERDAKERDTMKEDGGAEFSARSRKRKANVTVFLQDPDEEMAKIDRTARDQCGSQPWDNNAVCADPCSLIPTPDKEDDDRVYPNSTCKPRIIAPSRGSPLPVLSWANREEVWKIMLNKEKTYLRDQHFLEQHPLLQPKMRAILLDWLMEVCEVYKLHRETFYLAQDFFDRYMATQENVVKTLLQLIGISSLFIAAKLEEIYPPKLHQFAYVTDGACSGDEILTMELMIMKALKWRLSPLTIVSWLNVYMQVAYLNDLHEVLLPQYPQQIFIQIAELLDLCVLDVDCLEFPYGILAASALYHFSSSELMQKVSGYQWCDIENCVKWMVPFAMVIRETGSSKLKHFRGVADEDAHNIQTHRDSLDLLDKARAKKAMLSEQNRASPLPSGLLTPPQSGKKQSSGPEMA
Chain of CDK4/Cyclin D1 (P11802 whole entry): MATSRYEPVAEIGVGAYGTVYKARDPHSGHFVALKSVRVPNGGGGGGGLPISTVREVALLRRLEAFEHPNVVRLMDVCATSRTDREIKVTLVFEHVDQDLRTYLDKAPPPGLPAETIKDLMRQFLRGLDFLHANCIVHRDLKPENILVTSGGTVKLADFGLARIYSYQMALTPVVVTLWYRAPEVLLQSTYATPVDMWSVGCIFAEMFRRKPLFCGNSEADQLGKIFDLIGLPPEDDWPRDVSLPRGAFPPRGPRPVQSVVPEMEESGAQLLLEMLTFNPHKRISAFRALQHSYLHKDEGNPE
Chain of CDK4/Cyclin D1 (P24385 whole entry partner): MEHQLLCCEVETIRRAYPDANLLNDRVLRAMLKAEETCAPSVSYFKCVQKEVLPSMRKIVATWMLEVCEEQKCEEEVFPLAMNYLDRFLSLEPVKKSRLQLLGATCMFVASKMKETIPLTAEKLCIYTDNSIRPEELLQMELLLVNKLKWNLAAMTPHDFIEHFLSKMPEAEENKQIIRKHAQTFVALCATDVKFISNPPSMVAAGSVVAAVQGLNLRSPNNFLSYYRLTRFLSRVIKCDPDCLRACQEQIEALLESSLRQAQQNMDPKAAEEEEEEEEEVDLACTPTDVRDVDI
Chain of CDK5/CDK5R1 (Q00535 whole entry): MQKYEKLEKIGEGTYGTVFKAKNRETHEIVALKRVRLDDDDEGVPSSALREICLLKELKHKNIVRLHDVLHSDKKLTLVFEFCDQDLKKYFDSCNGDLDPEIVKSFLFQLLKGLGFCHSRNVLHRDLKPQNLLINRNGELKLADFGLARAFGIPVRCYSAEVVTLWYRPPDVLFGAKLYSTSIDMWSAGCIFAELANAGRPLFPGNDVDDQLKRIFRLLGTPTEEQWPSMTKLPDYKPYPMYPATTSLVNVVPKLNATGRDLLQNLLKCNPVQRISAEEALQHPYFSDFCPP
Chain of CDK5/CDK5R1 (Q15078 whole entry partner): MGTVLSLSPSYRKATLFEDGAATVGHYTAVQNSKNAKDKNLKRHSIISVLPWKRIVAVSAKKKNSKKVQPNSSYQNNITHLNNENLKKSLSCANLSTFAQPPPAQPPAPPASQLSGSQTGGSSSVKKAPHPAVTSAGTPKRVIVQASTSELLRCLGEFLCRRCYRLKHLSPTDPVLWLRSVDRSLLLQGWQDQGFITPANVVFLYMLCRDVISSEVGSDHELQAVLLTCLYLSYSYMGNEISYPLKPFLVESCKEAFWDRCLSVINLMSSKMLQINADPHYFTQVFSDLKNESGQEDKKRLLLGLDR
Chain of CDK14/Cyclin Y (O94921 whole entry): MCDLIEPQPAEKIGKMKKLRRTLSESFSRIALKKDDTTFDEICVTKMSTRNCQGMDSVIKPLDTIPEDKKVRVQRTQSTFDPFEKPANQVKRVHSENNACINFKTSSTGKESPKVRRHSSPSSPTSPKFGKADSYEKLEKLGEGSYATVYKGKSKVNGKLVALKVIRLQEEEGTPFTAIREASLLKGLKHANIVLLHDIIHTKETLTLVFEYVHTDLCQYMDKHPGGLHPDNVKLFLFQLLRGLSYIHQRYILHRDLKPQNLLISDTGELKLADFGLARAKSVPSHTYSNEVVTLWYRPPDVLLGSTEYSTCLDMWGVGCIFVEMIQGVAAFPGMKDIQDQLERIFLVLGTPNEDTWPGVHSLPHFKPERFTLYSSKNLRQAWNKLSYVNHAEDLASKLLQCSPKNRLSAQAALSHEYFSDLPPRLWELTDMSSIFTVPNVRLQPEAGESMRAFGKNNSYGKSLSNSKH
Chain of CDK14/Cyclin Y (Q8ND76 whole entry partner): as the sequence (Q8ND76 whole entry partner) above
Chain of CDK11B/Cyclin L2 (P21127 1-782 isoform P21127-2): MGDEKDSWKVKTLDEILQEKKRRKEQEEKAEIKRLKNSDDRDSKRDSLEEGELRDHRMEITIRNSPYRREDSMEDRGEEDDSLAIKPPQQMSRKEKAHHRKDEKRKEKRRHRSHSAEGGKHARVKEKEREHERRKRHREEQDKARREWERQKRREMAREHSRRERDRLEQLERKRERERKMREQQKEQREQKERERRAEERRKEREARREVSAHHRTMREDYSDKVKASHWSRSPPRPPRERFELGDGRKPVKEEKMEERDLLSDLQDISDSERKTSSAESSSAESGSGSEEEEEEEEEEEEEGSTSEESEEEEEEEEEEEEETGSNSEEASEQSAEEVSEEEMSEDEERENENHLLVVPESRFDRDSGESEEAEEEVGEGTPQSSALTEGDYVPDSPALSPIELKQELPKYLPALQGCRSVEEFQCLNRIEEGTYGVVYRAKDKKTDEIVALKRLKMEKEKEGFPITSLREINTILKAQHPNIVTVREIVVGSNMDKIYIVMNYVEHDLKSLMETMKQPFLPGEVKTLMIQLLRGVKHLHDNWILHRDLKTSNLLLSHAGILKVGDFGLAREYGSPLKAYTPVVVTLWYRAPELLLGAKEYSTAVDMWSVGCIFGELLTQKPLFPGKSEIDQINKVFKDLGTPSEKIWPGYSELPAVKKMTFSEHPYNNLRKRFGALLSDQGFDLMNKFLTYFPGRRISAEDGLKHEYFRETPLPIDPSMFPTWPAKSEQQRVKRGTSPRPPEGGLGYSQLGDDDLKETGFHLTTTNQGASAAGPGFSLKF
Chain of CDK19/Cyclin C (Q9BWU1 whole entry): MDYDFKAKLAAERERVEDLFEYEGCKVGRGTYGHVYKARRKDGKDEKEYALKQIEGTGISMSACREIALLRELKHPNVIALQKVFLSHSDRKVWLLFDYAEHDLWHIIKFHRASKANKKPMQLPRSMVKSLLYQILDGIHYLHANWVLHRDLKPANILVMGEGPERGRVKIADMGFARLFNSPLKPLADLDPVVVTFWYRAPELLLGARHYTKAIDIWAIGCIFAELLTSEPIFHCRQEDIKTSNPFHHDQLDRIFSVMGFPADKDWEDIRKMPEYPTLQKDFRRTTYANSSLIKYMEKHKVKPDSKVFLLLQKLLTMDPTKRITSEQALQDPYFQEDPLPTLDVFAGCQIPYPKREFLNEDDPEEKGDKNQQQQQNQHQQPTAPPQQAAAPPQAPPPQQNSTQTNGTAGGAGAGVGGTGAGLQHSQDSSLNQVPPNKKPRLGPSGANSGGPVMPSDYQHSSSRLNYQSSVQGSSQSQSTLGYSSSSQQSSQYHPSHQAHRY
Chain of CDK19/Cyclin C (P24863 whole entry partner): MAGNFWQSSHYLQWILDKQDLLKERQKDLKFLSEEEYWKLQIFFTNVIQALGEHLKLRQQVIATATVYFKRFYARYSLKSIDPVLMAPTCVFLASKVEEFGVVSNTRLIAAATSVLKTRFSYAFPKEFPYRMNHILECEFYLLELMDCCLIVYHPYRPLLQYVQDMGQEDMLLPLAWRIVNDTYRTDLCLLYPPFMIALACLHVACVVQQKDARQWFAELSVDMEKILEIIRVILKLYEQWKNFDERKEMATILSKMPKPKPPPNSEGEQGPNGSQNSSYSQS

`CN1CCN(Cc2ccc(NC(=O)Nc3ccc(Oc4ccnc(N)n4)cc3)cc2C(F)(F)F)CC1` [K03861] gave an inhibition at 10 µM (CDK1/Cyclin E1; average) of 70.4%, an inhibition at 10 µM (CDK1/Cyclin E1; experiment 1) of 66.2% and an inhibition at 10 µM (CDK1/Cyclin E1; experiment 2) of 74.6%. The inhibition at 10 µM (CDK4/Cyclin D1; average) was 78.8%, the inhibition at 10 µM (CDK4/Cyclin D1; experiment 1) was 79.9% and the inhibition at 10 µM (CDK4/Cyclin D1; experiment 2) was 77.6%. For the same compound, the inhibition at 10 µM (CDK5/CDK5R1; average) was 23.7%, the inhibition at 10 µM (CDK5/CDK5R1; experiment 1) was 27.8% and the inhibition at 10 µM (CDK5/CDK5R1; experiment 2) was 19.6%. It also gave an inhibition at 10 µM (CDK7; CDK7, average) of 81.8%, an IC50 (CDK7; CDK7, experiment 1, read-out: IC50) of 76 nM and an inhibition at 10 µM (CDK7; CDK7, experiment 1) of 83.6%. The IC50 (CDK7; CDK7, experiment 2, read-out: IC50) was 59 nM, the inhibition at 10 µM (CDK7; CDK7, experiment 2) was 79.9% and the IC50 (CDK7; CDK7, experiment 3, read-out: IC50) was 55 nM. For the same compound, the IC50 (CDK7; live HEK-293, 2 h, mean ± S.E.M. (n=3) or mean (n=2), read-out: IC50 for CDK/cyclin complexes, CDK7) was 63 nM, the inhibition at 10 µM (CDK8/Cyclin C; CDK8/C, average) was 95.6% and the IC50 (CDK8/Cyclin C; CDK8/C, experiment 1, read-out: IC50) was 2.1 nM. For the same compound, the inhibition at 10 µM (CDK8/Cyclin C; CDK8/C, experiment 1) was 96.7%, the IC50 (CDK8/Cyclin C; CDK8/C, experiment 2, read-out: IC50) was 5 nM and the inhibition at 10 µM (CDK8/Cyclin C; CDK8/C, experiment 2) was 94.5%. The IC50 (CDK8/Cyclin C; CDK8/C, experiment 3, read-out: IC50) was 2.2 nM, the IC50 (CDK8/Cyclin C; live HEK-293, 2 h, mean ± S.E.M. (n=3) or mean (n=2), read-out: IC50 for CDK/cyclin complexes, CDK8/C) was 3 nM and the inhibition at 10 µM (CDK9/Cyclin K; average) was 85.1%. The inhibition at 10 µM (CDK9/Cyclin K; experiment 1) was 84.3%, the inhibition at 10 µM (CDK9/Cyclin K; experiment 2) was 85.8% and the inhibition at 10 µM (CDK11A/Cyclin L2; average) was 14.5%. The inhibition at 10 µM (CDK11A/Cyclin L2; experiment 1) was 19.2%, the inhibition at 10 µM (CDK11A/Cyclin L2; experiment 2) was 9.8% and the inhibition at 10 µM (CDK11B/Cyclin L2; average) was 9.9%. The inhibition at 10 µM (CDK11B/Cyclin L2; experiment 1) was 15.5%, the inhibition at 10 µM (CDK11B/Cyclin L2; experiment 2) was 4.3% and the inhibition at 10 µM (CDK12/Cyclin K; average) was 43.7%. The inhibition at 10 µM (CDK12/Cyclin K; experiment 1) was 39%, the inhibition at 10 µM (CDK12/Cyclin K; experiment 2) was 48.3% and the inhibition at 10 µM (CDK13/Cyclin K; average) was 36.6%. The inhibition at 10 µM (CDK13/Cyclin K; experiment 1) was 32.4%, the inhibition at 10 µM (CDK13/Cyclin K; experiment 2) was 40.8% and the inhibition at 10 µM (CDK14/Cyclin Y; average) was 84.9%. The inhibition at 10 µM (CDK14/Cyclin Y; experiment 1) was 87.3%, the inhibition at 10 µM (CDK14/Cyclin Y; experiment 2) was 82.6% and the inhibition at 10 µM (CDK15/Cyclin Y; average) was 80.7%. It also gave an inhibition at 10 µM (CDK15/Cyclin Y; experiment 1) of 82.9%, an inhibition at 10 µM (CDK15/Cyclin Y; experiment 2) of 78.6% and an IC50 (CDK16/Cyclin Y; average (± SEM where n=3)) of 260 ± 70 nM. The IC50 (CDK16/Cyclin Y; experiment 1) was 140 nM, the inhibition at 10 µM (CDK16/Cyclin Y; experiment 1) was 74.3% and the IC50 (CDK16/Cyclin Y; experiment 2) was 365 nM. The inhibition at 10 µM (CDK16/Cyclin Y; experiment 2) was 80.7%, the IC50 (CDK16/Cyclin Y; experiment 3) was 270 nM and the IC50 (CDK17/Cyclin Y; average (± SEM where n=3)) was 190 ± 60 nM. For the same compound, the inhibition at 10 µM (CDK17/Cyclin Y; average) was 89.9%, the IC50 (CDK17/Cyclin Y; experiment 1) was 80 nM and the inhibition at 10 µM (CDK17/Cyclin Y; experiment 1) was 89.1%. It also gave an IC50 (CDK17/Cyclin Y; experiment 2) of 281 nM, an inhibition at 10 µM (CDK17/Cyclin Y; experiment 2) of 90.7% and an IC50 (CDK17/Cyclin Y; experiment 3) of 200 nM. The inhibition at 10 µM (CDK20/Cyclin H; experiment 1) was 40%, the inhibition at 10 µM (CDK20/Cyclin H; experiment 2) was 64.4% and the IC50 (CDK19/Cyclin C; IC50 (nM), CDK19/C, experiment 1) was 1.4 nM. It also gave an IC50 (CDK19/Cyclin C; IC50 (nM), CDK19/C, experiment 2) of 2.3 nM, an IC50 (CDK19/Cyclin C; IC50 (nM), CDK19/C, experiment 3) of 0.5 nM and an IC50 (CDK19/Cyclin C; IC50 (nM), CDK19/Y (so in the source), average (± SEM where n=3)) of 1.4 ± 0.5 nM. It also gave an IC50 (CDK19/Cyclin C; IC50 for CDK/cyclin complexes, CDK19/C, live HEK-293, 2 h, mean ± S.E.M. (n=3) or mean (n=2)) of 1.4 ± 0.5 nM, an inhibition at 10 µM (CDK19/Cyclin C; average) of 96.4% and an inhibition at 10 µM (CDK19/Cyclin C; experiment 1) of 95.5%. It also gave an inhibition at 10 µM (CDK19/Cyclin C; experiment 2) of 97.3%, an IC50 (CDK10/Cyclin L2; average (± SEM where n=3)) of 500 ± 100 nM and an IC50 (CDK10/Cyclin L2; experiment 1) of 310 nM. For the same compound, the IC50 (CDK10/Cyclin L2; experiment 2) was 530 nM, the IC50 (CDK10/Cyclin L2; experiment 3) was 670 nM and the inhibition at 10 µM (CDK10/Cyclin L2; average) was 79.8%. It also gave an inhibition at 10 µM (CDK10/Cyclin L2; experiment 1) of 79.7% and an inhibition at 10 µM (CDK10/Cyclin L2; experiment 2) of 79.9%.
